Assay results taken from publication PMC6479601, “Salicylate and Procyanidin-Rich Stem Extracts of Gaultheria procumbens L. Inhibit Pro-Inflammatory Enzymes and Suppress Pro-Inflammatory and Pro-Oxidant Functions of Human Neutrophils Ex Vivo” (International Journal of Molecular Sciences, 2019).

Key:
[1] = biological target: T1, LOX (lipoxygenase); test: lipoxygenase inhibition assay (Matczak et al.); format: biochemical; conditions: eight-point curve; read-out: LOX / IC50 (mg GAE/mL; mM) ^b
T1 construct: gene LOX1.1
From the text: lipoxygenase inhibition assay (Matczak et al.) on LOX (lipoxygenase)

[2] = biological target: T2, HYAL (hyaluronidase); test: hyaluronidase inhibition assay (Matczak et al.); format: biochemical; conditions: eight-point curve; read-out: HYAL / IC50 (μg GAE/mL; μM) ^b
T2 construct: gene SPAM1
From the text: hyaluronidase inhibition assay (Matczak et al.) on HYAL (hyaluronidase)

SMILES | IC50 [1] | IC50 [2]
C[C@@H]1C[C@H]2[C@@H]3CCC4=CC(=O)C=C[C@]4(C)[C@@]3(F)[C@@H](O)C[C@]2(C)[C@@]1(O)C(=O)CO [DEX] | 0.3 ± 0.02 mM | 36.1 ± 2.68 µM
COc1ccc2c(c1)c(CC(=O)O)c(C)n2C(=O)c1ccc(Cl)cc1 [IND] | 0.26 ± 0.01 mM | 35.7 ± 5.34 µM
Oc1cc(O)c2c(c1)O[C@H](c1ccc(O)c(O)c1)[C@H](O)[C@H]2c1c(O)cc(O)c2c1O[C@H](c1ccc(O)c(O)c1)[C@H](O)C2 [PB2] | 0.29 ± 0.03 mM | 37.4 ± 1.78 µM
COC(=O)c1ccccc1O[C@@H]1O[C@H](CO[C@@H]2OC[C@@H](O)[C@H](O)[C@H]2O)[C@@H](O)[C@H](O)[C@H]1O [compound 18, methyl salicylate 2-O-(6′-O-β-D-xylopyranosyl)-β-D-glucopyranoside] | 1.26 ± 0.04 mM | 64 ± 2.87 µM
O=c1c(O)c(-c2ccc(O)c(O)c2)oc2cc(O)cc(O)c12 [compound 39, QU] | 0.3 ± 0.02 mM | 102 ± 6.09 µM
